These results are taken from ChEMBL document CHEMBL1151634, “Phytochemical and biological screening of Saudi medicinal plants, Part 6. Isolation of 2 alpha-hydroxyalantolactone the antileukemic principle of Francoeuria crispa” (1984).

Values after ≈ are worked out from the molar mass of the structure shown.

What all share (assay type): functional
Experiment [1] can be described thus: Cytotoxicity against mouse 9PS cells.
The nature of experiment [2]: Cytotoxicity against human 9KB cells.
Experiment [3] concerns P388. Description: In vivo cytotoxicity against mouse P388 cells at 75 mg/kg relative to control.
Experiment [4] concerns Staphylococcus aureus. Description: Antibacterial activity against Staphylococcus aureus NCTC 6571 after overnight incubation by tube dilution method.

In general, T/C refers to the result in the treated group divided by that in the control group, in per cent. The term MIC denotes the smallest concentration in the dilution series that meets the test's criterion for growth inhibition. A higher MIC goes with weaker potency. In the case of `C=C1C(=O)O[C@@H]2C[C@@]3(C)C[C@@H](O)C[C@H](C)C3=C[C@H]12`, the Activity is 2 µg/mL in experiment [1] and 2 ×10⁻¹ ug/ml in experiment [2]. Besides, the T/C in experiment [3] stood at 123%. This molecule also returned an MIC in experiment [4] of 0.625 µg/mL (≈ 2.52 µM).
